From the NIST ThermoML archive (doi:10.1021/je700260f)
± gives the expanded uncertainty stated by the source.

Conditions: Liquid, Vibrating tube method

FC(C(F)(F)F)C(F)(F)F [1,1,1,2,3,3,3-heptafluoropropane]
Conditions | mass density [kg/m3]
333.14 K, 28231 kPa | 1431.3 ± 1.6
333.14 K, 28261 kPa | 1431.4 ± 1.6
333.14 K, 28291 kPa | 1431.5 ± 1.6
333.14 K, 28321 kPa | 1431.5 ± 1.6
333.14 K, 28346 kPa | 1431.8 ± 1.6
333.14 K, 28383 kPa | 1431.9 ± 1.6
333.14 K, 28426 kPa | 1432.1 ± 1.6
333.14 K, 28453 kPa | 1432.3 ± 1.6
333.14 K, 29468 kPa | 1436.5 ± 1.7
333.14 K, 29504 kPa | 1436.7 ± 1.7
333.14 K, 29539 kPa | 1436.8 ± 1.7
333.14 K, 29570 kPa | 1437.1 ± 1.7
333.14 K, 29596 kPa | 1437.2 ± 1.7
333.14 K, 29621 kPa | 1437.1 ± 1.7
333.14 K, 29660 kPa | 1437.3 ± 1.7
333.14 K, 29724 kPa | 1437.5 ± 1.7
333.14 K, 29789 kPa | 1437.8 ± 1.7
333.14 K, 29825 kPa | 1437.9 ± 1.7
333.14 K, 29848 kPa | 1438.1 ± 1.7
333.14 K, 29883 kPa | 1438.3 ± 1.7
333.14 K, 29910 kPa | 1438.4 ± 1.7
333.14 K, 29946 kPa | 1438.5 ± 1.7
333.14 K, 29982 kPa | 1438.6 ± 1.7
333.14 K, 30013 kPa | 1438.8 ± 1.7
333.14 K, 30054 kPa | 1439.1 ± 1.7
333.14 K, 30122 kPa | 1439.3 ± 1.7
333.14 K, 30215 kPa | 1439.6 ± 1.7
333.14 K, 30241 kPa | 1439.8 ± 1.7
333.14 K, 30272 kPa | 1440 ± 1.7
333.14 K, 30958 kPa | 1442.6 ± 1.7
333.14 K, 31004 kPa | 1442.8 ± 1.7
333.14 K, 31030 kPa | 1443 ± 1.7
333.14 K, 31064 kPa | 1443.2 ± 1.7
333.14 K, 31094 kPa | 1443.2 ± 1.7
333.14 K, 31125 kPa | 1443.4 ± 1.7
333.14 K, 31155 kPa | 1443.4 ± 1.7
333.14 K, 31190 kPa | 1443.7 ± 1.7
333.14 K, 31220 kPa | 1443.6 ± 1.7
333.14 K, 31247 kPa | 1443.9 ± 1.7
333.14 K, 31285 kPa | 1444 ± 1.7
333.14 K, 31317 kPa | 1444 ± 1.7
333.14 K, 31349 kPa | 1444.1 ± 1.7
333.14 K, 31380 kPa | 1444.4 ± 1.7
333.14 K, 31423 kPa | 1444.5 ± 1.7
333.14 K, 31458 kPa | 1444.7 ± 1.7
333.14 K, 31490 kPa | 1444.8 ± 1.7
333.14 K, 31523 kPa | 1445 ± 1.7
333.14 K, 31566 kPa | 1445.1 ± 1.7
333.14 K, 31598 kPa | 1445.3 ± 1.7
333.14 K, 31630 kPa | 1445.3 ± 1.7
333.14 K, 31662 kPa | 1445.5 ± 1.7
333.14 K, 31694 kPa | 1445.6 ± 1.7
333.14 K, 31730 kPa | 1445.8 ± 1.7
333.14 K, 31758 kPa | 1445.8 ± 1.7
333.14 K, 31790 kPa | 1446 ± 1.7
333.14 K, 31827 kPa | 1446.1 ± 1.7
333.14 K, 31857 kPa | 1446.3 ± 1.7
333.14 K, 31894 kPa | 1446.5 ± 1.7
333.14 K, 31930 kPa | 1446.5 ± 1.7
333.14 K, 31957 kPa | 1446.6 ± 1.7
333.14 K, 32003 kPa | 1446.7 ± 1.7
333.14 K, 32036 kPa | 1446.9 ± 1.7
333.14 K, 32069 kPa | 1447 ± 1.7
333.14 K, 32103 kPa | 1447.2 ± 1.7
333.14 K, 32135 kPa | 1447.4 ± 1.7
333.14 K, 32168 kPa | 1447.4 ± 1.7
333.14 K, 32197 kPa | 1447.6 ± 1.7
333.14 K, 32240 kPa | 1447.7 ± 1.7
333.14 K, 32275 kPa | 1447.7 ± 1.7
333.14 K, 32318 kPa | 1448 ± 1.7
333.14 K, 32349 kPa | 1448.2 ± 1.7
333.14 K, 32394 kPa | 1448.3 ± 1.7
333.14 K, 32422 kPa | 1448.5 ± 1.7
333.14 K, 32458 kPa | 1448.6 ± 1.7
333.14 K, 32486 kPa | 1448.7 ± 1.7
333.14 K, 32524 kPa | 1448.8 ± 1.7
333.14 K, 32553 kPa | 1448.9 ± 1.7
333.14 K, 32585 kPa | 1449.1 ± 1.7
333.14 K, 32614 kPa | 1449.2 ± 1.7
333.14 K, 32648 kPa | 1449.3 ± 1.7
333.14 K, 32678 kPa | 1449.5 ± 1.7
333.14 K, 32707 kPa | 1449.5 ± 1.7
333.14 K, 32736 kPa | 1449.7 ± 1.7
333.14 K, 32768 kPa | 1449.9 ± 1.7
333.14 K, 32811 kPa | 1449.9 ± 1.7
333.14 K, 32840 kPa | 1450.1 ± 1.7
333.14 K, 32883 kPa | 1450.3 ± 1.7
333.14 K, 33794 kPa | 1453.9 ± 1.7
333.14 K, 33829 kPa | 1453.8 ± 1.7
333.14 K, 33872 kPa | 1453.9 ± 1.7
333.14 K, 33907 kPa | 1454.1 ± 1.7
333.14 K, 34179 kPa | 1455.3 ± 1.7
333.14 K, 34220 kPa | 1455.1 ± 1.7
333.14 K, 34250 kPa | 1455.4 ± 1.7
333.14 K, 34294 kPa | 1455.5 ± 1.7
333.14 K, 34336 kPa | 1455.9 ± 1.7
333.14 K, 34376 kPa | 1455.8 ± 1.7
333.14 K, 34409 kPa | 1456 ± 1.7
333.15 K, 6283 kPa | 1289.9 ± 1.5
333.15 K, 6309 kPa | 1290.2 ± 1.5
333.15 K, 6346 kPa | 1290.5 ± 1.5
333.15 K, 6386 kPa | 1291 ± 1.5
333.15 K, 6413 kPa | 1291.3 ± 1.5
333.15 K, 6442 kPa | 1291.6 ± 1.5
333.15 K, 6789 kPa | 1295.3 ± 1.5
333.15 K, 6821 kPa | 1295.6 ± 1.5
333.15 K, 6856 kPa | 1296 ± 1.5
333.15 K, 6887 kPa | 1296.2 ± 1.5
333.15 K, 6965 kPa | 1297 ± 1.5
333.15 K, 7009 kPa | 1297.4 ± 1.5
333.15 K, 8110 kPa | 1308.2 ± 1.5
333.15 K, 8143 kPa | 1308.5 ± 1.5
333.15 K, 8176 kPa | 1308.8 ± 1.5
333.15 K, 8204 kPa | 1309.2 ± 1.5
333.15 K, 8236 kPa | 1309.5 ± 1.5
333.15 K, 8273 kPa | 1309.8 ± 1.5
333.15 K, 8298 kPa | 1310.1 ± 1.5
333.15 K, 8328 kPa | 1310.3 ± 1.5
333.15 K, 8357 kPa | 1310.6 ± 1.5
333.15 K, 8395 kPa | 1311 ± 1.5
333.15 K, 8425 kPa | 1311.2 ± 1.5
333.15 K, 8467 kPa | 1311.5 ± 1.5
333.15 K, 8497 kPa | 1311.8 ± 1.5
333.15 K, 8538 kPa | 1312.3 ± 1.5
333.15 K, 8560 kPa | 1312.4 ± 1.5
333.15 K, 8592 kPa | 1312.8 ± 1.5
333.15 K, 8622 kPa | 1313 ± 1.5
333.15 K, 8665 kPa | 1313.3 ± 1.5
333.15 K, 8701 kPa | 1313.7 ± 1.5
333.15 K, 8732 kPa | 1313.9 ± 1.5
333.15 K, 8768 kPa | 1314.3 ± 1.5
333.15 K, 8804 kPa | 1314.6 ± 1.5
333.15 K, 8846 kPa | 1314.9 ± 1.5
333.15 K, 8884 kPa | 1315.2 ± 1.5
333.15 K, 8912 kPa | 1315.8 ± 1.5
333.15 K, 8940 kPa | 1316 ± 1.5
333.15 K, 9044 kPa | 1316.8 ± 1.5
333.15 K, 9087 kPa | 1317.2 ± 1.5
333.15 K, 9121 kPa | 1317.5 ± 1.5
333.15 K, 9164 kPa | 1317.9 ± 1.5
333.15 K, 9196 kPa | 1318 ± 1.5
333.15 K, 9219 kPa | 1318.3 ± 1.5
333.15 K, 9251 kPa | 1318.6 ± 1.5
333.15 K, 9270 kPa | 1318.8 ± 1.5
333.15 K, 9294 kPa | 1319 ± 1.5
333.15 K, 9321 kPa | 1319.3 ± 1.5
333.15 K, 9349 kPa | 1319.5 ± 1.5
333.15 K, 9370 kPa | 1319.7 ± 1.5
333.15 K, 9402 kPa | 1319.9 ± 1.5
333.15 K, 9422 kPa | 1320.1 ± 1.5
333.15 K, 9455 kPa | 1320.4 ± 1.5
333.15 K, 9483 kPa | 1320.7 ± 1.5
333.15 K, 9512 kPa | 1320.9 ± 1.5
333.15 K, 9533 kPa | 1321.1 ± 1.5
333.15 K, 9552 kPa | 1321.1 ± 1.5
333.15 K, 9578 kPa | 1321.4 ± 1.5
333.15 K, 9599 kPa | 1321.5 ± 1.5
333.15 K, 9631 kPa | 1321.9 ± 1.5
333.15 K, 9652 kPa | 1322.1 ± 1.5
333.15 K, 9684 kPa | 1322.3 ± 1.5
333.15 K, 9713 kPa | 1322.7 ± 1.5
333.15 K, 9737 kPa | 1322.8 ± 1.5
333.15 K, 10680 kPa | 1330.6 ± 1.5
333.15 K, 10703 kPa | 1330.9 ± 1.5
333.15 K, 10737 kPa | 1331 ± 1.5
333.15 K, 10763 kPa | 1331.3 ± 1.5
333.15 K, 10786 kPa | 1331.6 ± 1.5
333.15 K, 10813 kPa | 1331.6 ± 1.5
333.15 K, 11004 kPa | 1333.2 ± 1.5
333.15 K, 11030 kPa | 1333.5 ± 1.5
333.15 K, 11055 kPa | 1333.5 ± 1.5
333.15 K, 11083 kPa | 1333.8 ± 1.5
333.15 K, 11507 kPa | 1337.2 ± 1.5
333.15 K, 11567 kPa | 1337.7 ± 1.5
333.15 K, 11594 kPa | 1337.8 ± 1.5
333.15 K, 11620 kPa | 1338 ± 1.5
333.15 K, 11651 kPa | 1338.3 ± 1.5
333.15 K, 11678 kPa | 1338.4 ± 1.5
333.15 K, 11705 kPa | 1338.6 ± 1.5
333.15 K, 11734 kPa | 1338.8 ± 1.5
333.15 K, 11757 kPa | 1339 ± 1.5
333.15 K, 12501 kPa | 1344.5 ± 1.5
333.15 K, 12533 kPa | 1344.8 ± 1.5
333.15 K, 12561 kPa | 1345 ± 1.5
333.15 K, 12589 kPa | 1345.2 ± 1.5
333.15 K, 12616 kPa | 1345.4 ± 1.5
333.15 K, 12648 kPa | 1345.7 ± 1.5
333.15 K, 12675 kPa | 1345.9 ± 1.5
333.15 K, 12698 kPa | 1346.1 ± 1.5
333.15 K, 12730 kPa | 1346.2 ± 1.5
333.15 K, 12754 kPa | 1346.4 ± 1.5
333.15 K, 12789 kPa | 1346.6 ± 1.5
333.15 K, 12823 kPa | 1347 ± 1.5
333.15 K, 12846 kPa | 1347.1 ± 1.5
333.15 K, 13551 kPa | 1352.2 ± 1.5
333.15 K, 13574 kPa | 1352.3 ± 1.5
333.15 K, 13601 kPa | 1352.5 ± 1.5
333.15 K, 13746 kPa | 1353.4 ± 1.5
333.15 K, 13772 kPa | 1353.6 ± 1.5
333.15 K, 13801 kPa | 1353.7 ± 1.5
333.15 K, 13830 kPa | 1354.1 ± 1.5
333.15 K, 13863 kPa | 1354.3 ± 1.5
333.15 K, 13893 kPa | 1354.5 ± 1.5
333.15 K, 14170 kPa | 1356.5 ± 1.5
333.15 K, 14195 kPa | 1356.8 ± 1.5
